# Measured values from patent US4450269A, “Mono-5-substituted-3-chloro-4H-1,2,6-thiadiazin-4-one antifungal agents” (FMC Corporation, priority 1980, dated 1984).
# Legend:
# Uromyces phaseoli = assay: whole plant or invertebrate; conditions: foliar, 24 h, read-out: Percent Disease Control, curative, bean rust
# Pyricularia oryzae = assay: microbe, parasite or virus in culture; type: cell-based; conditions: Pyricularia oryzae, 72 h; for inhibition at 5 ppm: read-out: Percent Fungus Growth Inhibition, PO, 5 ppm, 72 hours; for inhibition at 10 ppm: read-out: Percent Fungus Growth Inhibition, PO, 10 ppm, 72 hours; for inhibition at 20 ppm: read-out: Percent Fungus Growth Inhibition, PO, 20 ppm, 72 hours; for inhibition at 40 ppm: read-out: Percent Fungus Growth Inhibition, PO, 40 ppm, 72 hours
structure (smiles),measurement,setting,value
"O=C(Nc1ccccc1)Oc1ccc(Oc2nsnc(Cl)c2=O)cc1 [Compound 37, 3-chloro-5-[4-(phenylaminocarbonyloxy)phenoxy]-4H-1,2,6,-thiadiazin-4-one]",pest or weed control at 150 ppm,Uromyces phaseoli,0%
same,inhibition at 5 ppm,Pyricularia oryzae,44%
same,inhibition at 10 ppm,Pyricularia oryzae,44%
same,inhibition at 20 ppm,Pyricularia oryzae,61%
same,inhibition at 40 ppm,Pyricularia oryzae,61%
"CSc1ccc(Oc2nsnc(Cl)c2=O)cc1 [Compound 39, 3-chloro-5-[(4-methylthio)phenoxy]-4H-1,2,6,-thiadiazin-4-one]",pest or weed control at 150 ppm,Uromyces phaseoli,0%
same,inhibition at 5 ppm,Pyricularia oryzae,42%
same,inhibition at 10 ppm,Pyricularia oryzae,61%
same,inhibition at 20 ppm,Pyricularia oryzae,61%
same,inhibition at 40 ppm,Pyricularia oryzae,61%
"C[S+]([O-])c1ccc(Oc2nsnc(Cl)c2=O)cc1 (centres unmarked) [Compound 40, 3-chloro-5-[(4-methylsulfinyl)phenoxy]-4H-1,2,6,-thiadiazin-4-one]",pest or weed control at 150 ppm,Uromyces phaseoli,0%
same,inhibition at 5 ppm,Pyricularia oryzae,33%
same,inhibition at 10 ppm,Pyricularia oryzae,47%
same,inhibition at 20 ppm,Pyricularia oryzae,42%
same,inhibition at 40 ppm,Pyricularia oryzae,89%
"CS(=O)(=O)c1ccc(Oc2nsnc(Cl)c2=O)cc1 [Compound 41, 3-chloro-5-[(4-methylsulfonyl)phenoxy]-4H--1,2,6-thiadiazin-4-one]",pest or weed control at 150 ppm,Uromyces phaseoli,0%
same,inhibition at 5 ppm,Pyricularia oryzae,22%
same,inhibition at 10 ppm,Pyricularia oryzae,56%
same,inhibition at 20 ppm,Pyricularia oryzae,59%
same,inhibition at 40 ppm,Pyricularia oryzae,93%
"CC(=O)Nc1cccc(Oc2nsnc(Cl)c2=O)c1 [Compound 42, 3-[(3-N--acetylamino)-phenoxy]-5-chloro-4H--1,2,6-thiadiazin-4-one]",pest or weed control at 150 ppm,Uromyces phaseoli,0%
same,inhibition at 5 ppm,Pyricularia oryzae,7%
same,inhibition at 10 ppm,Pyricularia oryzae,11%
same,inhibition at 20 ppm,Pyricularia oryzae,32%
same,inhibition at 40 ppm,Pyricularia oryzae,68%
"CC(=O)Nc1ccccc1Oc1nsnc(Cl)c1=O [Compound 43, 3-[(2-acetylamino)-phenoxy]-5-chloro-4H--1,2,6-thiadiazin-4-one]",pest or weed control at 150 ppm,Uromyces phaseoli,0%
same,inhibition at 5 ppm,Pyricularia oryzae,13%
same,inhibition at 10 ppm,Pyricularia oryzae,18%
same,inhibition at 20 ppm,Pyricularia oryzae,24%
same,inhibition at 40 ppm,Pyricularia oryzae,24%
"O=c1c(Cl)nsnc1Oc1cccc(C(F)(F)F)c1 [Compound 44, 3-chloro-5-[(3-trifluoromethyl)phenoxy]-4H--1,2,6-thiadiazin-4-one]",pest or weed control at 150 ppm,Uromyces phaseoli,0%
same,inhibition at 5 ppm,Pyricularia oryzae,54%
same,inhibition at 10 ppm,Pyricularia oryzae,71%
same,inhibition at 20 ppm,Pyricularia oryzae,93%
same,inhibition at 40 ppm,Pyricularia oryzae,100%
"O=C(O)Cc1ccccc1Oc1nsnc(Cl)c1=O [Compound 45, 3-(2-carboxymethylphenoxy)-5-chloro-4H--1,2,6-thiadiazin-4-one]",pest or weed control at 150 ppm,Uromyces phaseoli,0%
same,inhibition at 5 ppm,Pyricularia oryzae,0%
same,inhibition at 10 ppm,Pyricularia oryzae,0%
same,inhibition at 20 ppm,Pyricularia oryzae,0%
same,inhibition at 40 ppm,Pyricularia oryzae,11%
"N#CCc1ccc(Oc2nsnc(Cl)c2=O)cc1 [Compound 46, 3-chloro-5-[(4-cyanomethyl)-phenoxy]4H--1,2,6-thiadiazin-4-one]",pest or weed control at 150 ppm,Uromyces phaseoli,0%
same,inhibition at 5 ppm,Pyricularia oryzae,38%
same,inhibition at 10 ppm,Pyricularia oryzae,77%
same,inhibition at 20 ppm,Pyricularia oryzae,100%
same,inhibition at 40 ppm,Pyricularia oryzae,100%
"CC(=O)c1ccc(Oc2nsnc(Cl)c2=O)cc1 [Compound 47, 3-(4-acetylphenoxy)-5-chloro-4H--1,2,6-thiadiazin-4-one]",pest or weed control at 150 ppm,Uromyces phaseoli,0%
same,inhibition at 5 ppm,Pyricularia oryzae,78%
same,inhibition at 10 ppm,Pyricularia oryzae,78%
same,inhibition at 20 ppm,Pyricularia oryzae,100%
same,inhibition at 40 ppm,Pyricularia oryzae,89%
"CC(=O)c1cccc(Oc2nsnc(Cl)c2=O)c1 [Compound 48, 3-(3-acetylphenoxy)-5-chloro-4H--1,2,6-thiadiazin-4-one]",pest or weed control at 150 ppm,Uromyces phaseoli,0%
same,inhibition at 5 ppm,Pyricularia oryzae,56%
same,inhibition at 10 ppm,Pyricularia oryzae,67%
same,inhibition at 20 ppm,Pyricularia oryzae,100%
same,inhibition at 40 ppm,Pyricularia oryzae,100%
"CC(=O)c1ccccc1Oc1nsnc(Cl)c1=O [Compound 49, 3-(2-acetylphenoxy)-5-chloro-4H--1,2,6-thiadiazin-4-one]",pest or weed control at 150 ppm,Uromyces phaseoli,0%
same,inhibition at 5 ppm,Pyricularia oryzae,29%
same,inhibition at 10 ppm,Pyricularia oryzae,38%
same,inhibition at 20 ppm,Pyricularia oryzae,53%
same,inhibition at 40 ppm,Pyricularia oryzae,74%
"O=C(O)c1ccc(Oc2nsnc(Cl)c2=O)cc1 [Compound 50, 3-(4-carboxyphenoxy)-5-chloro-4H--1,2,6-thiadiazin-4-one]",pest or weed control at 150 ppm,Uromyces phaseoli,0%
same,inhibition at 5 ppm,Pyricularia oryzae,11%
same,inhibition at 10 ppm,Pyricularia oryzae,0%
same,inhibition at 20 ppm,Pyricularia oryzae,11%
same,inhibition at 40 ppm,Pyricularia oryzae,100%
"COc1ccc(Cl)c(Oc2nsnc(Cl)c2=O)c1 [Compound 51, 3-chloro-5-[(2-chloro-5-methoxy)phenoxy]-4H--1,2,6-thiadiazin-4-one]",pest or weed control at 150 ppm,Uromyces phaseoli,0%
same,inhibition at 5 ppm,Pyricularia oryzae,46%
same,inhibition at 10 ppm,Pyricularia oryzae,77%
same,inhibition at 20 ppm,Pyricularia oryzae,92%
same,inhibition at 40 ppm,Pyricularia oryzae,100%
"O=c1c(Cl)nsnc1Oc1ccc([N+](=O)[O-])cc1Cl [Compound 53, 3-chloro-5-(2-chloro-4-nitrophenoxy)-4H--1,2,6-thiadiazin-4-one]",pest or weed control at 150 ppm,Uromyces phaseoli,0%
same,inhibition at 5 ppm,Pyricularia oryzae,69%
same,inhibition at 10 ppm,Pyricularia oryzae,75%
same,inhibition at 20 ppm,Pyricularia oryzae,78%
same,inhibition at 40 ppm,Pyricularia oryzae,67%
"Cc1cc(Oc2nsnc(Cl)c2=O)ccc1Cl [Compound 54, 3-chloro-5-(4-chloro-3-methylphenoxy)-4H--1,2,6-thiadiazin-4-one]",pest or weed control at 150 ppm,Uromyces phaseoli,0%
same,inhibition at 5 ppm,Pyricularia oryzae,50%
same,inhibition at 10 ppm,Pyricularia oryzae,53%
same,inhibition at 20 ppm,Pyricularia oryzae,56%
same,inhibition at 40 ppm,Pyricularia oryzae,65%
"Cc1cc(Cl)ccc1Oc1nsnc(Cl)c1=O [Compound 55, 3-chloro-5-(4-chloro-2-methylphenoxy)-4H--1,2,6-thiadiazin-4-one]",pest or weed control at 150 ppm,Uromyces phaseoli,0%
same,inhibition at 5 ppm,Pyricularia oryzae,41%
same,inhibition at 10 ppm,Pyricularia oryzae,59%
same,inhibition at 20 ppm,Pyricularia oryzae,51%
same,inhibition at 40 ppm,Pyricularia oryzae,53%
"Cc1ccc(Cl)c(Oc2nsnc(Cl)c2=O)c1 [Compound 56, 3-chloro-5-[(2-chloro-5-methyl)phenoxy]-4H--1,2,6-thiadiazin-4-one]",pest or weed control at 150 ppm,Uromyces phaseoli,100%
same,inhibition at 5 ppm,Pyricularia oryzae,38%
same,inhibition at 10 ppm,Pyricularia oryzae,67%
same,inhibition at 20 ppm,Pyricularia oryzae,100%
same,inhibition at 40 ppm,Pyricularia oryzae,100%
"Cc1ccc(Oc2nsnc(Cl)c2=O)c(Br)c1 [Compound 57, 3-[(2-bromo-4-methyl)-phenoxy]-5-chloro-4H--1,2,6-thiadiazin-4-one]",pest or weed control at 150 ppm,Uromyces phaseoli,0%
same,inhibition at 5 ppm,Pyricularia oryzae,46%
same,inhibition at 10 ppm,Pyricularia oryzae,61%
same,inhibition at 20 ppm,Pyricularia oryzae,71%
same,inhibition at 40 ppm,Pyricularia oryzae,61%
"Cc1cc(Cl)c(Oc2nsnc(Cl)c2=O)cc1C [Compound 58, 3-chloro-5-[(2-chloro-4,5-dimethyl)phenoxy]-4H--1,2,6-thiadiazin-4-one]",pest or weed control at 150 ppm,Uromyces phaseoli,0%
same,inhibition at 5 ppm,Pyricularia oryzae,43%
same,inhibition at 10 ppm,Pyricularia oryzae,54%
same,inhibition at 20 ppm,Pyricularia oryzae,29%
same,inhibition at 40 ppm,Pyricularia oryzae,50%
"Cc1cc(Oc2nsnc(Cl)c2=O)cc(C)c1Cl [Compound 59, 3-chloro-5-[(4-chloro-3,5-dimethyl)phenoxy]-4H--1,2,6-thiadiazin-4-one]",pest or weed control at 150 ppm,Uromyces phaseoli,0%
same,inhibition at 5 ppm,Pyricularia oryzae,50%
same,inhibition at 10 ppm,Pyricularia oryzae,61%
same,inhibition at 20 ppm,Pyricularia oryzae,50%
same,inhibition at 40 ppm,Pyricularia oryzae,50%
"Cc1cc(Oc2nsnc(Cl)c2=O)cc(C)c1Br [Compound 60, 3-[(4-bromo-3,5-dimethyl)-phenoxy]-5-chloro-4H--1,2,6-thiadiazin-4-one]",pest or weed control at 150 ppm,Uromyces phaseoli,0%
same,inhibition at 5 ppm,Pyricularia oryzae,32%
same,inhibition at 10 ppm,Pyricularia oryzae,43%
same,inhibition at 20 ppm,Pyricularia oryzae,43%
same,inhibition at 40 ppm,Pyricularia oryzae,64%
